# Structures can show the parent of a compound that is named as a salt.
# Target: truncated PI3Kα (p110α/iSH2 p85α) (Homo sapiens (Human), UniProt P42336)
# Assay: PI3KA_Act fluorescence polarization kinase assay (Ki)
# Assay type: biochemical
# Settings: 1 mM ATP
# How it was run: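 p110α/iSH2 p85α (0.5 nM) was reacted with 30 μM sonicated PIP2 in 50 mM HEPES pH 7.4, 150 mM NaCl, 5 mM MgCl2, 1 mM DTT and 0.05% CHAPS for 30 min at room temperature, then stopped with EDTA. PIP3 was detected by fluorescence polarization (GST-Grp1 PH domain/TAMRA-PIP3), and Ki came from a Morrison tight-binding fit.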
# Sequence of truncated PI3Kα (p110α/iSH2 p85α) (P42336 whole entry, the tested form may be a part): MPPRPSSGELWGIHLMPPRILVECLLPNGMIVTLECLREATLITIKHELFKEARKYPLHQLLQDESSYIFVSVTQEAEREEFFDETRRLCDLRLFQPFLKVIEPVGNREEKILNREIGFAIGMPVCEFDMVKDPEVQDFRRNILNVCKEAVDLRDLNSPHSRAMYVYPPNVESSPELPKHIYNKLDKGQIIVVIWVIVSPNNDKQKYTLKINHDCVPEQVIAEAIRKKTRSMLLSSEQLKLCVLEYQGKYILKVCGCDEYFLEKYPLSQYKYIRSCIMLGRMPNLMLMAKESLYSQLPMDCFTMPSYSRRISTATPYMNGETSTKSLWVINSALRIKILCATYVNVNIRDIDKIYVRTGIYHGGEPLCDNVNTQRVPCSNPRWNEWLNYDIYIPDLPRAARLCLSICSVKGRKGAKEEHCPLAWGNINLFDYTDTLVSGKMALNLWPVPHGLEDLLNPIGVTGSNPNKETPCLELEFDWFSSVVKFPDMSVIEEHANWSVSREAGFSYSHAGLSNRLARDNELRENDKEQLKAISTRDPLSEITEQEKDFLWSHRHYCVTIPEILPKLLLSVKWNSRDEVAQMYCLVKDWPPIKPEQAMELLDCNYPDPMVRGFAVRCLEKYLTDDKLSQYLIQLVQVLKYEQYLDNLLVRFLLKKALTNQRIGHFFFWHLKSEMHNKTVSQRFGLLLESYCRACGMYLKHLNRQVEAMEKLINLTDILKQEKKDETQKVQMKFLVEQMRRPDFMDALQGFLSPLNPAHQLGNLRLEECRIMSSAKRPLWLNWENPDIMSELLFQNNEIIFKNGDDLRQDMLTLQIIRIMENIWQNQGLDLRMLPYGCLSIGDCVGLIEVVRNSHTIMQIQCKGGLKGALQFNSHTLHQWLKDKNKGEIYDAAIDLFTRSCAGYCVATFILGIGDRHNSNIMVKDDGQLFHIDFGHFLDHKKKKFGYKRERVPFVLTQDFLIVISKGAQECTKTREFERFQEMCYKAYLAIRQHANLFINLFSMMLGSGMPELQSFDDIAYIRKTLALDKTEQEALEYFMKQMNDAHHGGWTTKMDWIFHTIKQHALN
row,Structure (SMILES),PI3KA_Act Ki [nM]
1,"C[C@]1(N2CCc3c(-c4cnc(N)nc4)nc(N4CCOCC4)nc32)CCN(C(=O)c2cn[nH]c2)C1 [Example 387, {(3S)-3-[4-(2-aminopyrimidin-5-yl)-2-(morpholin-4-yl)-5,6-dihydro-7H-pyrrolo[2,3-d]pyrimidin-7-yl]-3-methylpyrrolidin-1-yl}(1H-pyrazol-4-yl)methanone]",<0.018
2,"C[C@@]1(N2CCc3c(-c4cnc(N)nc4)nc(N4CCOCC4)nc32)CCN(C(=O)N2CC(C#N)C2)C1 [Example 364, 1-({(3R)-3-[4-(2-aminopyrimidin-5-yl)-2-(morpholin-4-yl)-5,6-dihydro-7H-pyrrolo[2,3-d]pyrimidin-7-yl]-3-methylpyrrolidin-1-yl}carbonyl)azetidine-3-carbonitrile]",0.262
3,"CC(C)(O)C(=O)N1CC(C)(N2CCc3c(-c4cnc(N)nc4)nc(N4CCOCC4)nc32)C1 [Example 242, 1-{3-[4-(2-aminopyrimidin-5-yl)-2-(morpholin-4-yl)-5,6-dihydro-7H-pyrrolo[2,3-d]pyrimidin-7-yl]-3-methylazetidin-1-yl}-2-hydroxy-2-methylpropan-1-one]",0.158
4,"CC(C)(C)OC(=O)N1CC(C)(N2CCc3c(-c4cnc(N)nc4)nc(N4CCOCC4)nc32)C1 [Example 249, tert-butyl 3-[4-(2-aminopyrimidin-5-yl)-2-(morpholin-4-yl)-5,6-dihydro-7H-pyrrolo[2,3-d]pyrimidin-7-yl]-3-methylazetidine-1-carboxylate]",0.019
5,CC(=O)N1CC[C@@](C)(N2CCc3c(-c4cnc(N)nc4)nc(N4CCOCC4)nc32)C1 [Example 211],0.078
6,"C[C@H]1COCCN1c1nc(-c2cnc(N)nc2)c2c(n1)N([C@@]1(C)CCN(C(=O)C(C)(C)CN)C1)CC2.Cl [Example 484, 3-amino-1-[(3S)-3-{4-(2-aminopyrimidin-5-yl)-2-[(3S)-3-methylmorpholin-4-yl]-5,6-dihydro-7H-pyrrolo[2,3-d]pyrimidin-7-yl}-3-methylpyrrolidin-1-yl]-2,2-dimethylpropan-1-one hydrochloride]",<0.018
7,C[C@]1(N2CCc3c(-c4cnc(N)nc4)nc(N4CCOCC4)nc32)CCN(S(C)(=O)=O)C1 [Example 149],0.027
8,"C[C@]1(N2CCc3c(-c4cnc(N)nc4)nc(N4CCOCC4)nc32)CCN(C(=O)[C@@H]2CCN2)C1.Cl [Example 347, {(3S)-3-[4-(2-aminopyrimidin-5-yl)-2-(morpholin-4-yl)-5,6-dihydro-7H-pyrrolo[2,3-d]pyrimidin-7-yl]-3-methylpyrrolidin-1-yl}[(2S)-azetidin-2-yl]methanone hydrochloride]",0.075
9,CC(=O)NCC(=O)N1CC(N2CCc3c(-c4cnc(N)nc4)nc(N4CCOCC4)nc32)C1 [Example 210],0.898
10,"C[C@H]1COCCN1c1nc(-c2cnc(N)nc2)c2c(n1)N([C@@]1(C)CCN(C(=O)[C@H](N)C(F)(F)F)C1)CC2.Cl [Example 491, (2S)-2-amino-1-[(3S)-3-{4-(2-aminopyrimidin-5-yl)-2-[(3S)-3-methylmorpholin-4-yl]-5,6-dihydro-7H-pyrrolo[2,3-d]pyrimidin-7-yl}-3-methylpyrrolidin-1-yl]-3,3,3-trifluoropropan-1-one hydrochloride]",0.050
11,"C[C@H]1COCCN1c1nc(-c2cnc(N)nc2)c2c(n1)N(C1(C)CCN(C(=O)OC(C)(C)C)CC1)CC2 [Example 519, tert-butyl 4-{4-(2-aminopyrimidin-5-yl)-2-[(3S)-3-methylmorpholin-4-yl]-5,6-dihydro-7H-pyrrolo[2,3-d]pyrimidin-7-yl}-4-methylpiperidine-1-carboxylate]",0.036
12,"COC(=O)N1CC[C@@](C)(N2CCc3c(-c4cnc(N)nc4)nc(N4CCOC[C@@H]4C)nc32)C1 [Example 509, methyl (3R)-3-{4-(2-aminopyrimidin-5-yl)-2-[(3S)-3-methylmorpholin-4-yl]-5,6-dihydro-7H-pyrrolo[2,3-d]pyrimidin-7-yl}-3-methylpyrrolidine-1-carboxylate]",0.135
13,"CNC(=O)N1CC(C)(N2CCc3c(-c4cnc(N)nc4)nc(N4CCOC[C@@H]4C)nc32)C1 [Example 462, 3-{4-(2-aminopyrimidin-5-yl)-2-[(3S)-3-methylmorpholin-4-yl]-5,6-dihydro-7H-pyrrolo[2,3-d]pyrimidin-7-yl}-N,3-dimethylazetidine-1-carboxamide]",0.057
14,"CCC(=O)N1CC[C@@](C)(N2CCc3c(-c4cnc(N)nc4)nc(N4CCOCC4)nc32)C1 [Example 261, 1-{(3R)-3-[4-(2-aminopyrimidin-5-yl)-2-(morpholin-4-yl)-5,6-dihydro-7H-pyrrolo[2,3-d]pyrimidin-7-yl]-3-methylpyrrolidin-1-yl}propan-1-one]",0.143
15,CC1(N2CCc3c(-c4cnc(N)nc4)nc(N4CCOCC4)nc32)CN(S(N)(=O)=O)C1 [Example 208],0.062
16,"C[C@]1(N2CCc3c(-c4cnc(N)nc4)nc(N4CCOCC4)nc32)CCN(C(=O)[C@H]2CCCO2)C1 [Example 372, {(3S)-3-[4-(2-aminopyrimidin-5-yl)-2-(morpholin-4-yl)-5,6-dihydro-7H-pyrrolo[2,3-d]pyrimidin-7-yl]-3-methylpyrrolidin-1-yl}[(2R)-tetrahydrofuran-2-yl]methanone]",0.040
17,"Cn1ccnc1C(=O)N1CC[C@](C)(N2CCc3c(-c4cnc(N)nc4)nc(N4CCOCC4)nc32)C1 [Example 390, {(3S)-3-[4-(2-aminopyrimidin-5-yl)-2-(morpholin-4-yl)-5,6-dihydro-7H-pyrrolo[2,3-d]pyrimidin-7-yl]-3-methylpyrrolidin-1-yl}(1-methyl-1H-imidazol-2-yl)methanone]",0.084
18,"C[C@@H](N)C(=O)N1CC[C@](C)(N2CCc3c(-c4cnc(N)nc4)nc(N4CCOC[C@@H]4C)nc32)C1.Cl [Example 476, (2R)-2-amino-1-[(3S)-3-{4-(2-aminopyrimidin-5-yl)-2-[(3S)-3-methylmorpholin-4-yl]-5,6-dihydro-7H-pyrrolo[2,3-d]pyrimidin-7-yl}-3-methylpyrrolidin-1-yl]propan-1-one hydrochloride]",<0.018
19,"CC(C)(N)C(=O)N1CC[C@H](N2CCc3c(-c4cnc(N)nc4)nc(N4CCOCC4)nc32)C1.Cl [Example 283, 2-amino-1-{(3S)-3-[4-(2-aminopyrimidin-5-yl)-2-(morpholin-4-yl)-5,6-dihydro-7H-pyrrolo[2,3-d]pyrimidin-7-yl]pyrrolidin-1-yl}-2-methylpropan-1-one hydrochloride]",0.208
20,"C[C@H](C(=O)N1CC[C@](C)(N2CCc3c(-c4cnc(N)nc4)nc(N4CCOCC4)nc32)C1)N(C)C [Example 301, (2R)-1-{(3S)-3-[4-(2-aminopyrimidin-5-yl)-2-(morpholin-4-yl)-5,6-dihydro-7H-pyrrolo[2,3-d]pyrimidin-7-yl]-3-methylpyrrolidin-1-yl}-2-(dimethylamino) propan-1-one]",0.073
21,"CNC(=O)N1CC[C@](C)(N2CCc3c(-c4cnc(N)nc4)nc(N4CCOC[C@@H]4C)nc32)C1 [Example 506, (3S)-3-{4-(2-aminopyrimidin-5-yl)-2-[(3S)-3-methylmorpholin-4-yl]-5,6-dihydro-7H-pyrrolo[2,3-d]pyrimidin-7-yl}-N,3-dimethylpyrrolidine-1-carboxamide]",0.061
22,C[C@H]1COCCN1c1nc(-c2cnc(N)nc2)c2c(n1)N(C1(C)CN(S(=O)(=O)C3CC3)C1)CC2 [Example 205],0.021
23,"CN1CCC(N2CC[C@](C)(N3CCc4c(-c5cnc(N)nc5)nc(N5CCOCC5)nc43)C2)C1=O (single isomer, unassigned) [Example 426]",0.051
24,"COC1CN(C(=O)N2CC[C@](C)(N3CCc4c(-c5cnc(N)nc5)nc(N5CCOC[C@@H]5C)nc43)C2)C1 [Example 498, [(3S)-3-{4-(2-aminopyrimidin-5-yl)-2-[(3S)-3-methylmorpholin-4-yl]-5,6-dihydro-7H-pyrrolo[2,3-d]pyrimidin-7-yl}-3-methylpyrrolidin-1-yl](3-methoxyazetidin-1-yl)methanone]",0.048
25,"C[C@@]1(N2CCc3c(-c4cnc(N)nc4)nc(N4CCOCC4)nc32)CCN(C(=O)C2CCC2)C1 [Example 342, {(3R)-3-[4-(2-aminopyrimidin-5-yl)-2-(morpholin-4-yl)-5,6-dihydro-7H-pyrrolo[2,3-d]pyrimidin-7-yl]-3-methylpyrrolidin-1-yl}(cyclobutyl)meth-anone]",0.141
26,"CC(C)(O)C(=O)N1CC[C@](C)(N2CCc3c(-c4cnc(N)nc4)nc(N4CCOCC4)nc32)C1 [Example 275, 1-{(3S)-3-[4-(2-aminopyrimidin-5-yl)-2-(morpholin-4-yl)-5,6-dihydro-7H-pyrrolo[2,3-d]pyrimidin-7-yl]-3-methylpyrrolidin-1-yl}-2-hydroxy-2-methylpropan-1-one]",0.030
27,"C[C@]1(N2CCc3c(-c4cnc(N)nc4)nc(N4CCOCC4)nc32)CCN(C2CCCC2)C1 [Example 425, 5-{7-[(3S)-1-cyclopentyl-3-methylpyrrolidin-3-yl]-2-(morpholin-4-yl)-6,7-dihydro-5H-pyrrolo[2,3-d]pyrimidin-4-yl}pyrimidin-2-amine]",0.311
28,"CC(=O)N1CC(C)(N2CCc3c(-c4cnc(N)nc4)nc(N4CCOCC4)nc32)C1 [Example 240, 1-{3-[4-(2-aminopyrimidin-5-yl)-2-(morpholin-4-yl)-5,6-dihydro-7H-pyrrolo[2,3-d]pyrimidin-7-yl]-3-methylazetidin-1-yl}ethanone]",0.093

# Same assay, conditions: 1 mM ATP, hydrochloride
row,Structure (SMILES),PI3KA_Act Ki [nM]
1,"C[C@H]1COCCN1c1nc(-c2cnc(N)nc2)c2c(n1)N(C1(C)CCCNC1)CC2 (single isomer, unassigned) [Example 517, hydrochloride]",9.319

# From patent US9260439B2, “Dihydropyrrolopyrimidine derivatives” (PFIZER INC., priority 2014, dated 2016)
